Converted amounts (≈) assume the structure as drawn.
Tests used:
Klebsiella pneumonia X26 = type: cell-based; settings: agar dilution
Escherichia coli EC14 = type: cell-based; settings: agar dilution
[1] = test system: Streptococcus faecium ATCC 9790; type: cell-based; settings: agar dilution
[2] = test system: Streptococcus pyogenes C203; type: cell-based; settings: agar dilution
Klebsiella pneumonia KAE = type: cell-based; settings: agar dilution
[3] = test system: Streptococcus sp. group D 2041; type: cell-based; settings: agar dilution
[4] = test system: Staphylococcus aureus X400; settings: agar dilution
[5] = test system: Staphylococcus epidermidis 222; type: cell-based; settings: agar dilution
[6] = test system: Staphylococcus aureus NRRL B313; settings: agar dilution
[7] = test system: Haemophilus influenzae C.L.; type: cell-based; settings: agar dilution
Escherichia coli N10 = type: cell-based; settings: agar dilution
Escherichia coli TEM = type: cell-based; settings: agar dilution
[8] = test system: Haemophilus influenzae 76; type: cell-based; settings: agar dilution
Klebsiella pneumonia X68 = type: cell-based; settings: agar dilution
[9] = test system: Staphylococcus epidermidis EP11; type: cell-based; settings: agar dilution
[10] = test system: Staphylococcus aureus V41; settings: agar dilution
[11] = test system: Streptococcus pneumoniae Park 1; type: cell-based; settings: agar dilution
[12] = test system: Clostridium septicum 1128; type: cell-based; settings: agar dilution, read after 24 hrs
Description: (§1) | read after 24hrs. incubation.

[13] = test system: Clostridium difficile 2994; type: cell-based; settings: agar dilution, read after 24 hrs
Description: as §1

[14] = test system: Fusobacterium symbiosum 1470; type: cell-based; settings: agar dilution, read after 24 hrs
[15] = test system: Peptostreptococcus intermedius 1264; type: cell-based; settings: agar dilution, read after 24 hrs
[16] = test system: Bacteroides fragilis 1936B; type: cell-based; settings: agar dilution, read after 24 hrs
Bacteroides fragilis 111 = type: cell-based; settings: agar dilution, read after 24 hrs
[17] = test system: Bacteroides thetaiotaomicron 1438; type: cell-based; settings: agar dilution, read after 24 hrs
Peptococcus prevoti 1281 = settings: agar dilution, read after 24 hrs
[18] = test system: Bacteroides melaninogenicus 2736; type: cell-based; settings: agar dilution, read after 24 hrs
[19] = test system: Bacteroides corrodens 1874; type: cell-based; settings: agar dilution, read after 24 hrs
[20] = test system: Peptostreptococcus anaerobius 1428; type: cell-based; settings: agar dilution, read after 24 hrs
[21] = test system: Eubacterium aerofaciens 1235; type: cell-based; settings: agar dilution, read after 24 hrs
[22] = test system: Propionibacterium acnes 79; type: cell-based; settings: agar dilution, read after 24 hrs
Staphylococcus aureus = test: experimental bacterial infection in mice, ED50; type: in vivo; settings: subcutaneous, two doses
Description: (§2) The formula 1 compounds have also shown in vivo antimicrobial activity against experimental bacterial infections. When two doses of test compound were administered to mice in experimental infections, the activity observed was measured as an ED50 value [effective dose in mg/kg to protect 50% of the test animals: see Warren Wick, et al., J. Bacteriol. 81, 233-235 (1961)].

Streptococcus pneumoniae = test: experimental bacterial infection in mice, ED50; type: in vivo; settings: subcutaneous, two doses
Description: as §2

Streptococcus pyogenes = test: experimental bacterial infection in mice, ED50; type: in vivo; settings: subcutaneous, two doses
Description: as §2

[23] = test system: Fusobacterium necrophorum 6054A; type: cell-based; settings: agar dilution, read after 24 hrs
[24] = test system: Clostridium perfringens 81; type: cell-based; settings: agar dilution, read after 24 hrs
[25] = test system: Bacteroides melaninogenicus 1856/28; type: cell-based; settings: agar dilution, read after 24 hrs
[26] = test system: Peptococcus asaccharolyticus 1302; type: cell-based; settings: agar dilution, read after 24 hrs
[27] = test system: Bacteroides vulgatis 1211; type: cell-based; settings: agar dilution, read after 24 hrs
[28] = test system: Bacteroides fragilis 1877; type: cell-based; settings: agar dilution, read after 24 hrs
[29] = test system: gram-positive microorganisms; test: in vitro antibacterial activity (general statement); type: cell-based; settings: statement in words

SMILES | MIC (Klebsiella pneumonia X26) [µg/mL] | MIC (Escherichia coli EC14) [µg/mL] | MIC [1] [µg/mL] | MIC [2] [µg/mL] | MIC (Klebsiella pneumonia KAE) [µg/mL] | MIC [3] [µg/mL] | MIC [4] [µg/mL] | MIC [5] [µg/mL] | MIC [6] [µg/mL] | MIC [7] [µg/mL] | MIC (Escherichia coli N10) [µg/mL] | MIC (Escherichia coli TEM) [µg/mL] | MIC [8] [µg/mL] | MIC (Klebsiella pneumonia X68) [µg/mL] | MIC [9] [µg/mL] | MIC [10] [µg/mL] | MIC [11] [µg/mL] | ED50 (Staphylococcus aureus) [mg/kg/2] | ED50 (Streptococcus pneumoniae) [mg/kg/2] | ED50 (Streptococcus pyogenes) [mg/kg/2] | also measured
CC(C)C[C@H](C(=O)N[C@H]1C(=O)N[C@@H](CC(N)=O)C(=O)N[C@H]2C(=O)N[C@H]3C(=O)N[C@H](C(=O)N[C@H](C(=O)[O-])c4cc(O)cc(O)c4-c4cc3ccc4O)[C@H](O)c3ccc(c(Cl)c3)Oc3cc2cc(c3O[C@@H]2O[C@H](CO)[C@@H](O)[C@H](O)[C@H]2O)Oc2ccc(cc2Cl)[C@H]1O)[N+](C)(C)C [Compound 5, M43C] | > 64 | > 64 | 4 (≈ 3 µM) | 1 (≈ 0.75 µM) | > 64 | 8 (≈ 6 µM) | 2 (≈ 1.5 µM) | 4 (≈ 3 µM) | 2 (≈ 1.5 µM) | > 64 | > 64 | > 64 | 64 (≈ 48 µM) | > 64 | 8 (≈ 6 µM) | 2 (≈ 1.5 µM) | 1 (≈ 0.75 µM) | – | – | – | –
CC(C)C[C@@H](N)C(=O)N[C@H]1C(=O)N[C@@H](CC(N)=O)C(=O)N[C@H]2C(=O)N[C@H]3C(=O)N[C@H](C(=O)N[C@H](C(=O)O)c4cc(O)cc(O)c4-c4cc3ccc4O)[C@H](O)c3ccc(c(Cl)c3)Oc3cc2cc(c3O)Oc2ccc(cc2Cl)[C@H]1O [Compound 9, Agluco-A51568A] | > 128 | > 128 | 1 (≈ 0.885 µM) | 1 (≈ 0.885 µM) | > 128 | 2 (≈ 1.77 µM) | 0.5 (≈ 0.443 µM) | 1 (≈ 0.885 µM) | 0.5 (≈ 0.443 µM) | 128 (≈ 113 µM) | > 128 | > 128 | 128 (≈ 113 µM) | > 128 | 1 (≈ 0.885 µM) | 0.5 (≈ 0.443 µM) | 0.5 (≈ 0.443 µM) | 0.74 | 1.8 | 2.0 | MIC [12]: 1 µg/mL (≈ 0.885 µM); MIC [13]: 1 µg/mL (≈ 0.885 µM); MIC [14]: 4 µg/mL (≈ 3.54 µM); MIC [15]: 1 µg/mL (≈ 0.885 µM); MIC [16]: 64 µg/mL (≈ 56.6 µM); MIC (Bacteroides fragilis 111): 64 µg/mL (≈ 56.6 µM); MIC [17]: 64 µg/mL (≈ 56.6 µM); MIC (Peptococcus prevoti 1281): 1 µg/mL (≈ 0.885 µM); MIC [18]: 4 µg/mL (≈ 3.54 µM); MIC [19]: 64 µg/mL (≈ 56.6 µM); MIC [20]: ≥ 0.5 µg/mL; MIC [21]: 1 µg/mL (≈ 0.885 µM); MIC [22]: 1 µg/mL (≈ 0.885 µM); MIC [23]: ≥ 0.5 µg/mL; MIC [24]: 1 µg/mL (≈ 0.885 µM); MIC [25]: > 128 µg/mL; MIC [26]: 1 µg/mL (≈ 0.885 µM); MIC [27]: 1 µg/mL (≈ 0.885 µM); MIC [28]: 64 µg/mL (≈ 56.6 µM)
CN[C@H](CC(C)C)C(=O)N[C@H]1C(=O)N[C@@H](CC(N)=O)C(=O)N[C@H]2C(=O)N[C@H]3C(=O)N[C@H](C(=O)N[C@H](C(=O)O)c4cc(O)cc(O)c4-c4cc3ccc4O)[C@H](O)c3ccc(c(Cl)c3)Oc3cc2cc(c3O)Oc2ccc(cc2Cl)[C@H]1O [Compound 10, aglucovancomycin] | > 128 | > 128 | 1 (≈ 0.874 µM) | 0.5 (≈ 0.437 µM) | > 128 | 64 (≈ 55.9 µM) | 1 (≈ 0.874 µM) | 1 (≈ 0.874 µM) | 0.5 (≈ 0.437 µM) | 64 (≈ 55.9 µM) | > 128 | 64 (≈ 55.9 µM) | 64 (≈ 55.9 µM) | > 128 | 2 (≈ 1.75 µM) | 1 (≈ 0.874 µM) | 0.5 (≈ 0.437 µM) | 8.75 | 16.54 | 22.3 | MIC [12]: 8 µg/mL (≈ 6.99 µM); MIC [13]: 8 µg/mL (≈ 6.99 µM); MIC [14]: 8 µg/mL (≈ 6.99 µM); MIC [15]: > 128 µg/mL; MIC [16]: > 128 µg/mL; MIC (Bacteroides fragilis 111): > 128 µg/mL; MIC [17]: > 128 µg/mL; MIC (Peptococcus prevoti 1281): 8 µg/mL (≈ 6.99 µM); MIC [18]: 128 µg/mL (≈ 112 µM); MIC [19]: > 128 µg/mL; MIC [20]: 32 µg/mL (≈ 28 µM); MIC [21]: 128 µg/mL (≈ 112 µM); MIC [22]: 8 µg/mL (≈ 6.99 µM); antibacterial activity [29]: good in vitro antibacterial activity; MIC [23]: 2 µg/mL (≈ 1.75 µM); MIC [24]: 8 µg/mL (≈ 6.99 µM); MIC [25]: > 128 µg/mL; MIC [26]: 64 µg/mL (≈ 55.9 µM); MIC [27]: 128 µg/mL (≈ 112 µM); MIC [28]: 128 µg/mL (≈ 112 µM)
CC(C)C[C@H](C(=O)N[C@H]1C(=O)N[C@@H](CC(N)=O)C(=O)N[C@H]2C(=O)N[C@H]3C(=O)N[C@H](C(=O)N[C@H](C(=O)[O-])c4cc(O)cc(O)c4-c4cc3ccc4O)[C@H](O)c3ccc(c(Cl)c3)Oc3cc2cc(c3O)Oc2ccc(cc2Cl)[C@H]1O)[N+](C)(C)C [Compound 11, Agluco-M43A] | > 128 | > 128 | 2 (≈ 1.71 µM) | 2 (≈ 1.71 µM) | > 128 | 4 (≈ 3.41 µM) | 2 (≈ 1.71 µM) | 2 (≈ 1.71 µM) | 2 (≈ 1.71 µM) | 128 (≈ 109 µM) | > 128 | > 128 | 32 (≈ 27.3 µM) | > 128 | 2 (≈ 1.71 µM) | 2 (≈ 1.71 µM) | 1 (≈ 0.853 µM) | 3.06 | 3.06 | 3.63 | –
CC(C)C[C@@H](N)C(=O)N[C@H]1C(=O)N[C@@H](CC(N)=O)C(=O)N[C@H]2C(=O)N[C@H]3C(=O)N[C@H](C(=O)N[C@H](C(=O)O)c4cc(O)cc(O)c4-c4cc3ccc4O)[C@H](O)c3ccc(c(Cl)c3)Oc3cc2cc(c3O[C@@H]2O[C@H](CO)[C@@H](O)[C@H](O)[C@H]2O)Oc2ccc(cc2Cl)[C@H]1O [Compound 12, Desvancosamine-A51568A] | > 128 | > 128 | 4 (≈ 3.1 µM) | 2 (≈ 1.55 µM) | > 128 | 8 (≈ 6.19 µM) | 2 (≈ 1.55 µM) | 4 (≈ 3.1 µM) | 2 (≈ 1.55 µM) | > 128 | > 128 | 128 (≈ 99.1 µM) | > 128 | > 128 | 4 (≈ 3.1 µM) | 2 (≈ 1.55 µM) | 1 (≈ 0.774 µM) | – | – | – | –
CN[C@H](CC(C)C)C(=O)N[C@H]1C(=O)N[C@@H](CC(N)=O)C(=O)N[C@H]2C(=O)N[C@H]3C(=O)N[C@H](C(=O)N[C@H](C(=O)O)c4cc(O)cc(O)c4-c4cc3ccc4O)[C@H](O)c3ccc(c(Cl)c3)Oc3cc2cc(c3O[C@@H]2O[C@H](CO)[C@@H](O)[C@H](O)[C@H]2O)Oc2ccc(cc2Cl)[C@H]1O [Compound 13, Desvancosamine-Vancomycin] | > 128 | > 128 | 8 (≈ 6.13 µM) | 4 (≈ 3.06 µM) | > 128 | 32 (≈ 24.5 µM) | 8 (≈ 6.13 µM) | 8 (≈ 6.13 µM) | 8 (≈ 6.13 µM) | > 128 | > 128 | > 128 | 128 (≈ 98 µM) | > 128 | 16 (≈ 12.3 µM) | 8 (≈ 6.13 µM) | 4 (≈ 3.06 µM) | – | – | – | –

Reference: patent US4552701A, “Glycopeptide antibiotics and process of preparation” (Eli Lilly and Company, priority 1984, dated 1985)
